Measured values as given in publication PMC8636514, “Therapeutic potential of TRPM8 antagonists in prostate cancer” (Scientific Reports, 2021).

Legend:
[1] = tested on: PC3 cells; experiment: DNA synthesis (BrdU incorporation) in PC3 cells; format: cell-based; settings: cycling or androgen-stimulated (10 nM R1881) cells, compound 1 µM
Description: (§1) Cells on coverslips were pulsed in vivo with BrdU (Sigma-Aldrich; at 100 μM, final concentration) and left unchallenged or challenged with 10 nM R1881 for 18 h, in the absence or presence of the indicated compounds. Cells were fixed, permeabilized, washed and the BrdU incorporation was analysed as reported. Nuclei were stained with Hoechst and cells on coverslips were scored by IF microscopy, using a DMLB Leica (Leica) fluorescent microscope, equipped with HCX PL Apo 63 × oil objective. Different fields from each coverslip were analyzed and BrdU incorporation was calculated by the formula: percentage of BrdU-positive cells = (No. of BrdU-positive cells/No. of total cells) × 100. Data in the graphs derive from at least 1000 scored cells for each coverslip. Representative images were captured using DC480 camera (Leica) and acquired using Leica Suite software. They are representative of three different experiments.

[2] = tested on: DU145 cells; experiment: DNA synthesis (BrdU incorporation) in DU145 cells; format: cell-based; settings: cycling or androgen-stimulated (10 nM R1881) cells, compound 1 µM
Description: as §1

[3] = tested on: 22Rv1 cells; experiment: DNA synthesis (BrdU incorporation) in 22Rv1 cells; format: cell-based, human; settings: 10 nM R1881, 18 h, compound 1 μM
Description: as §1

[4] = tested on: DU-CaP cells; experiment: DNA synthesis (BrdU incorporation) in DU-CaP cells; format: cell-based, human; settings: 10 nM R1881, 18 h, compound 1 μM
Description: as §1

[5] = tested on: PC3 cells; experiment: Wound scratch assay in PC3 cells; format: cell-based; settings: cycling or quiescent cells, 10 nM R1881, compound 1 µM
Description: (§2) In wound scratch analysis, 1.8 × 10^5 cells were seeded in a 24-well plate and made quiescent. Cells were then wounded using 10 µl sterile pipette tips and washed with PBS. They were left un-stimulated or stimulated for the indicated times, in the absence or presence of the selected compounds. To avoid cell proliferation, cytosine arabinoside (Sigma-Aldrich) at 50 μM (final concentration) was included in the cell medium. Different fields were analysed by contrast-phase microscopy, as below described in this section. Migration and invasion assays were done as reported. In migration assay, we used 3 × 10^4 cells in collagen pre-coated Boyden’s chambers with 8 μm polycarbonate membrane (Falcon). The indicated stimuli were added to the upper and the lower chambers. […] Migrating and invading cells were scored by fluorescence microscopy, as below described in this section.
(§3) In wound scratch assay, different fields were analysed using DMIRB inverted microscope (Leica) equipped with N-Plan 10 × objective (Leica), as reported. LNCaP organoids were analysed using the same microscope equipped with C-Plan 40 × or HCX PL Fluotar 63 × objectives (Leica). […] The relative organoid size was calculated using the same software and expressed as a fold increase over the basal organoid size (measured at 3th day). The wound gap was calculated using Image J Software and expressed as % of the decrease in the wound area. […]

[6] = tested on: DU145 cells; experiment: Wound scratch assay in DU145 cells; format: cell-based; settings: cycling or quiescent cells, 10 nM R1881, compound 1 µM
Description: as §2, §3

[7] = tested on: 22Rv1 cells; experiment: Invasion assay, 22Rv1 cells; format: cell-based, human; settings: 10 nM R1881, compound 1 μM; compared with LNCaP
Description: as §2, §3

[8] = tested on: DU-CaP cells; experiment: Transmigration assay, DU-CaP cells; format: cell-based, human; settings: 10 nM R1881, compound 1 μM; compared with LNCaP
Description: as §2, §3

[9] = tested on: DU-CaP cells; experiment: Invasion assay, DU-CaP cells; format: cell-based, human; settings: 10 nM R1881, compound 1 μM; compared with LNCaP
Description: as §2, §3

[10] = tested on: FAK, paxillin, ERK, RSK and Src tyrosine kinase; experiment: Western blot of androgen-induced rapid actions in LNCaP cells (Fig. 6c); format: cell-based, human; settings: 10 nM R1881, 10 min, compound 1 μM
Description: All performed as reported. The mouse monoclonal anti-AR (441; Santa Cruz) antibody was used in Co-Ip or WB approaches. TRPM8 was detected using the rabbit polyclonal anti-TRPM8 (NBP1-97311; Novus Biological). […] The rabbit polyclonal anti-ERK (C-14; Santa Cruz), antibody was used to detect total ERK. FAK and P-Tyr397 FAK were detected using the mouse monoclonal anti-FAK (Clone 77/610077 BD Transduction Laboratories) or anti P-Tyr397 FAK (Clone 14/611722; BD Transduction Laboratories) antibodies, respectively. P-Tyr118 paxillin and total paxillin were detected using the rabbit polyclonal anti-P-Y118 (#2541, Cell Signaling) or the mouse monoclonal anti-paxillin (clone 349; BD Biosciences) antibodies, respectively. […] P-Tyr 416 Src and Src were detected using the rabbit monoclonal anti P-Tyr 416 Src (#6943; Cell Signaling) or the mouse monoclonal anti Src (Calbiochem) antibodies, respectively. ERα and ERβ were detected using the rabbit polyclonal anti-ERα (543; Santa Cruz) or anti-ERβ (Upstate Biotechnology, U.S.A.) antibodies. Cyclin D1, p27 and Cdk4 were stained using the mouse monoclonal anti-cyclin D1 (clone AM29; from Zymed Laboratories Inc.), the rabbit polyclonal anti-p27 (C-19; Santa Cruz) or anti Cdk-4 (c-22; Santa Cruz) antibodies, respectively. The mouse monoclonal anti-tubulin (Sigma-Aldrich) antibody was used to detect tubulin. The ECL system (GE Healthcare) was employed to reveal immune-reactive proteins. Densitometric analysis of WB was performed by using Image J Software (https://imagej.nih.gov/ij).

Row | Structure (SMILES) | BrdU incorporation [1] | BrdU incorporation [2] | androgen-stimulated BrdU incorporation [3] | androgen-stimulated BrdU incorporation [4] | wound closure [5] | wound closure [6] | androgen-induced invasion [7] | androgen-induced migration [8] | androgen-induced invasion [9] | androgen-elicited activation of FAK, paxillin, ERK, RSK and Src [10]
1 | c1ccc(COc2ccc3[nH]cc(CCNCc4ccc(Oc5ccccc5)cc4)c3c2)cc1 [Compound 4] | did not affect | did not affect | significantly inhibited | significantly inhibited | did not modify | did not modify | Superimposable results | Superimposable results | Superimposable results | impaired at similar extent
2 | COC(=O)[C@H](Cc1c[nH]c2ccccc12)N(Cc1ccccc1)Cc1ccccc1 [Compound 6] | did not affect | did not affect | significantly inhibited | significantly inhibited | did not modify | did not modify | Superimposable results | Superimposable results | Superimposable results | impaired at similar extent
